Where a name gives a salt, the structure may show the parent alone. Marks after values point to notes of the source that are not given here.
Tests used:
[1] = system: healthy post-menopausal women; test: 8-week parallel, double-blind, placebo study: serum lipids (GGGC); format: in vivo, human; settings: 8 weeks
Description: (§1) An 8-week parallel, double-blind, placebo study in approximately 160 healthy post-menopausal women was completed. The doses of raloxifene used in this study were 10, 50, and 200 mg. […] (See Table I) Because of development over time seen with many bone markers, a raloxifene dose of 50 mg/day will likely be fully active when evaluated during a study of longer duration.
Serum lipid levels were affected by raloxifene doses of 50 and 200 mg (Table II).

[2] = system: healthy post-menopausal women; test: 8-week parallel, double-blind, placebo study: markers of bone metabolism (GGGC); format: in vivo, human; settings: 8 weeks
Description: as §1

With `O=C(c1ccc(OCCN2CCCCC2)cc1)c1c(-c2ccc(O)cc2)sc2cc(O)ccc12` [Raloxifene, 6-hydroxy-2-(4-hydroxyphenyl)-3[4-(2-piperidinoethoxy)benzoyl]benzo[b]thiophene, hydrochloride] the “LDL cholesterol (in words)” value ([1]; 50 mg) was “Decreases”, the “LDL cholesterol (in words)” value ([1]; 200 mg) was “comparable decrease” and the “HDL:LDL ratios (in words)” value ([1]; both the 50 and 200 mg doses) was “Statistically significant decreases”. For the same compound, the “total serum cholesterol levels (in words)” value ([1]; both the 50 and 200 mg doses) was “Statistically significant decreases”, the “HDL-C, mean group change from baseline to endpoint” value (“HDL-C, mean group change” below) ([1]; raloxifene 10 mg, n = 42) was 0.01 mmol/L and the “HDL-C:LDL-C ratio, mean group change from baseline to endpoint” value (“HDL-C:LDL-C ratio, mean group change” below) ([1]; raloxifene 10 mg, n = 42) was 0.00. For the same compound, the “LDL-C, mean group change from baseline to endpoint” value (“LDL-C, mean group change” below) ([1]; raloxifene 10 mg, n = 42) was 0.05 mmol/L, the “Toal cholesterol, mean group change from baseline to endpoint” value (“Toal cholesterol, mean group change” below) ([1]; raloxifene 10 mg, n = 42) was 0.01 mmol/L and the “HDL-C, mean group change” value ([1]; raloxifene 50 mg, n = 42) was 0.04 mmol/L. The “HDL-C:LDL-C ratio, mean group change” value ([1]; raloxifene 50 mg, n = 42) was 0.03*, the “LDL-C, mean group change” value ([1]; raloxifene 50 mg, n = 42) was −0.23* mmol/L and the “Toal cholesterol, mean group change” value ([1]; raloxifene 50 mg, n = 42) was −0.23* mmol/L. For the same compound, the “HDL-C, mean group change” value ([1]; raloxifene 200 mg, n = 41) was 0.02 mmol/L, the “HDL-C:LDL-C ratio, mean group change” value ([1]; raloxifene 200 mg, n = 41) was 0.03* and the “LDL-C, mean group change” value ([1]; raloxifene 200 mg, n = 41) was -0.17 mmol/L. For the same compound, the “Toal cholesterol, mean group change” value ([1]; raloxifene 200 mg, n = 41) was -0.15 mmol/L, the “HDL levels (in words)” value ([1]; raloxifene-treated subjects) was “no changes” and the “activity with either bone marker (in words)” value ([2]; 10 mg dose) was “no significant activity”. For the same compound, the “Serum alkaline phosphatase, mean group change from baseline to endpoint” value ([2]; raloxifene 10 mg, n = 42) was 0.21 U/L, the “Serum osteocalcin, mean group change from baseline to endpoint” value (shortened to “Serum osteocalcin, mean group change”) ([2]; raloxifene 10 mg, n = 42) was -0.27 ng/mL and the “Serum alkaline phosphatase, mean group change from baseline to endpoint” value ([2]; raloxifene 50 mg, n = 42) was −4.78 U/L. The “Serum osteocalcin, mean group change” value ([2]; raloxifene 50 mg, n = 42) was -0.81 ng/mL, the “Serum alkaline phosphatase, mean group change from baseline to endpoint” value ([2]; raloxifene 200 mg, n = 41) was −5.93* U/L and the “Serum osteocalcin, mean group change” value ([2]; raloxifene 200 mg, n = 41) was −1.21* ng/mL.

Reference: patent USRE39050E1, “Methods of use for inhibiting bone loss and lowering serum cholesterol” (Eli Lilly and Company, priority 1994, dated 2006)
